Source: ChEMBL document CHEMBL1833798, “Coprismycins A and B, neuroprotective phenylpyridines from the dung beetle-associated bacterium, Streptomyces sp” (Bioorg Med Chem Lett, 2011)

Legend:
[1] = test system: SH-SY5Y; test: Cytotoxicity against human SH-SY5Y cells assessed as cell viability at 1 to 5 uM after 24 hrs; type: cell-based
[2] = test system: SH-SY5Y; test: Neuroprotective activity against MPP-induced neurotoxicity in human SH-SY5Y cells assessed as increase in cell viability at 5 uM pretreated for 2 hrs before MPP challenge measured after 48 hrs relative to control; type: functional
[3] = test system: SH-SY5Y; test: Neuroprotective activity against MPP-induced neurotoxicity in human SH-SY5Y cells assessed as increase in cell viability pretreated for 2 hrs before MPP challenge measured after 48 hrs; type: functional, cell-based
[4] = test system: HCT-116; test: Cytotoxicity against human HCT116 cells assessed as inhibition of cell proliferation; type: ADME, cell-based
[5] = test system: MCF7; test: Cytotoxicity against human MCF7 cells assessed as inhibition of cell proliferation; type: ADME, cell-based
[6] = test system: A549; test: Cytotoxicity against human A549 cells assessed as inhibition of cell proliferation; type: ADME, cell-based
[7] = test system: AGS; test: Cytotoxicity against human AGS cells assessed as inhibition of cell proliferation; type: ADME, cell-based
[8] = test system: HepG2; test: Cytotoxicity against human HepG2 cells assessed as inhibition of cell proliferation; type: ADME, cell-based
[9] = in vitro; conditions: human, HCT116 cells
Description: Cytotoxicity against human HCT116 cells assessed as inhibition of cell proliferation at 50 uM

[10] = test system: SH-SY5Y; test: Neuroprotective activity against MPP-induced neurotoxicity in human SH-SY5Y cells assessed as increase in cell viability at 2.5 uM pretreated for 2 hrs before MPP challenge measured after 48 hrs relative to control; type: functional
[11] = test system: SH-SY5Y; test: Neuroprotective activity against MPP-induced neurotoxicity in human SH-SY5Y cells assessed as decrease in cell viability at 5 uM pretreated for 2 hrs before MPP challenge measured after 48 hrs relative to control; type: functional
[12] = test system: SH-SY5Y; test: Cytotoxicity against human SH-SY5Y cells assessed as cell viability at 5 uM after 48 hrs; type: cell-based

| Structure (SMILES) | Activity [1] | Activity [2] | Activity [3] | IC50 [4] | IC50 [5] | IC50 [6] | IC50 [7] | IC50 [8] | inhibition at 50 µM [9] | Activity [10] | Activity [11] | Activity [12] |
| --- | --- | --- | --- | --- | --- | --- | --- | --- | --- | --- | --- | --- |
| COc1cc(-c2ccccc2)nc(/C=N/O)c1SC [COPRISMYCIN A] | Non-toxic | 80.3% | Dose-dependent effect | Not Active | Not Active | Not Active | Not Active | Not Active | – | – | – | – |
| COc1cc(-c2ccccn2)nc2cnsc12 | Non-toxic | 80% | Dose-dependent effect | Not Active | Not Active | Not Active | Not Active | Not Active | – | – | – | – |
| COc1cc(-c2ccccn2)nc(C#N)c1SC | Non-toxic | 83.3% | Dose-dependent effect | Not Active | Not Active | Not Active | Not Active | Not Active | 7.37% | – | – | – |
| COc1cc(-c2ccccc2)nc(/C=N\O)c1SC [COPRISMYCIN B] | Non-toxic | – | Dose-dependent effect | Not Active | Not Active | Not Active | Not Active | Not Active | – | 88.4% | 69.8% | Toxic |
